Data published in patent US20250002465A1, “TRIMERIC COPPER CATALYSTS, INTERMEDIATES FOR MAKING SUCH CATALYSTS AND METHOD FOR PREPARING A CYCLOADDITION COMPOUND” (University of Kentucky Research Foundation, priority 2023, published 2025).

Tests used:
[1] = system: MDA-MB-468; experiment: Cytotoxicity, MTT assay; details: read-out: IC50 (cytotoxicity), MDA-MB-468 cells, 72 hours
[2] = Catalytic CuAAC reaction in water (phenylacetylene, benzyl azide), conversion by GC
[3] = Cyclic voltammetry, oxidation potential; format: physicochemical
[4] = Stability of the complex to air, moisture and H2O2 (colour, EPR, UV-visible spectroscopy); format: physicochemical; details: for Colour change in the presence of air or moisture: over the course of weeks, solid or solution
Procedure: FIG. 2 illustrates Left: UV-vis absorbance spectra of 3+(CH3CN)4CuPF6 in H2O after 18 hours with 5 molar equivalents of H2O2. Right: UV-vis absorbance spectra after addition of N-methylimidazole to 3+(CH3CN)4CuPF6+5 molar equivalents of H2O2 in H2O after 18 hours incubation.
One of the most important aspects of catalysts for the biologically compatible CuAAC reaction is the ability to perform the reaction while not forming any ROS. Most Cu (I) complexes can be rapidly oxidized by oxygen to Cu (II) and form O2—, one of the first ROS that can then go on to react in myriad ways. […] To further verify this, we performed EPR measurements on solutions of 6 in the absence and presence of H2O2.
We then tested the chemical oxidation of solutions of 7 by UV-visible spectroscopy […]. Increasing amounts of H2O2 were added and the absorption spectrum was measured (FIG. 2).
Without the addition of oxidant, an absorption peak at 280 nm is the lowest energy feature in the spectrum. Aqueous solutions of Cu^2+ ions absorb visible light, typically due to low energy d-d transitions. Therefore, if Cu^2+ was formed, we would expect to observe the appearance of a new absorption in the visible region.

[5] = system: SUM-159; experiment: Cytotoxicity, MTT assay; format: cell-based; details: SUM-159 cells, 72 hours
Procedure: FIG. 5 is a-b) Effect of 6 and 7 on cell viability in TNBC cells treated with the complexes for 72 hours. Mean±s.e.m. n=3. c) Structure of AuDTC-alkyne used for click experiment.
We first evaluated the cytotoxicity of the complexes (6 and 7) in triple-negative breast cancer cells, MDA-MB-468 and SUM-159 using MTT assay.

[6] = system: MDA-MB-468 cells; experiment: Intracellular Cu(I)-catalyzed click chemistry and mitochondria colocalization, confocal microscopy; format: cell-based; details: 100 μM catalyst, no THPTA or ascorbate
[7] = catalyst concentration 20 mM, room temperature, 4 hr, average of two runs
[8] = CH2Cl2, glassy carbon working electrode

Compound: OCCCn1cc(CN(Cc2cn(CCCO)nn2)Cc2cn(CCCO)nn2)nn1.[Cu] [THPTA, Cu tris-(hydroxypropyltriazolyl)-methylamine, reference compound]
- IC50 [1]: 22.4 µM

Compound: c1ccc2[nH]c([C@H]3C[C@@H](c4nc5ccccc5[nH]4)C[C@@H](c4nc5ccccc5[nH]4)C3)nc2c1 [compound 1, Cis,cis-1,3,5-cyclohexanetribenzimidazole-2-yl]
- Conversion [2, 7]: ~18%

Compound: CCCCn1c2ccccc2nc1[C@H]1C[C@@H](c2nc3ccccc3n2CCCC)C[C@@H](c2nc3ccccc3n2CCCC)C1 [compound 2, Cis,cis-1,3,5-cyclohexanetribenzimidazole-1-butyl-2-yl]
- Conversion [2, 7]: nearly quantitative

Compound: COCCOCCn1c2ccccc2nc1[C@H]1C[C@@H](c2nc3ccccc3n2CCOCCOC)C[C@@H](c2nc3ccccc3n2CCOCCOC)C1 [compound 3, Cis,cis-1,3,5-cyclohexanetribenzimidazole-1-(2-(2-methoxyethoxy)ethyl)-2-yl]
- Conversion [2, 7]: nearly quantitative
- Oxidation wave [3, 8]: irreversible oxidation near the same potential

Compound: (Cis,cis-1,3,5-cyclohexanetribenzimidazole-1-(2-(2-methoxyethoxy)ethyl)-2-yl)2(Cu(I)PF6)3 [compound 7]
- Change of UV-visible absorption spectrum with N-methylimidazole and H2O2 ([4]; in-situ formed 7, five equivalents of H2O2 plus N-methylimidazole): no change in the absorption spectrum
- Colour change in the presence of air or moisture [4]: did not change color
- Change of UV-visible absorption spectrum with H2O2 ([4]; up to five molar equivalents of peroxide, 18 hours, room temperature): no appreciable change in the absorption spectrum
- IC50 [5]: > 100 µM
- Conversion ([2]; 50 mM loading, water, 35° C., 1 hour): 75%
- Conversion ([2]; catalyst concentration 0.5 μM, water, 35° C., 18 hr): 33%
- Conversion ([2]; catalyst concentration 0.5 μM, water, ambient conditions, 18 hours): 6%
- Conversion ([2]; catalyst concentration 1.0 μM, water, 35° C., 18 hr): 64%
- Conversion ([2]; catalyst concentration 1 μM, water, ambient conditions, 18 hours): 8%
- Conversion ([2]; catalyst concentration 5 μM, water, 35° C., 18 hr): ~88%
- Conversion ([2]; catalyst concentration 5 μM, water, ambient conditions, 18 hours): ~13%
- Conversion ([2]; catalyst concentration 10 μM, water, 35° C., 18 hr): quantitative
- Conversion ([2]; catalyst concentration 10 μM, water, ambient conditions, 18 hours): ~13%
- Conversion ([2]; catalyst concentration 50 μM, water, ambient conditions, 18 hours): ~36%
- IC50 [1]: 78.6 µM
- Oxidation wave ([3]; 0.1 M LiClO4 in H2O, Hg/Hg2SO4 reference): did not observe an oxidation wave
- Irreversible reduction wave (Cu+/Cu0) ([3]; CH2Cl2): ~0 V vs. SCE
- Oxidation wave [3, 8]: 1.85 V vs SCE
- Click reaction between AuDTC-alkyne and azide fluorescein in cells [6]: effectively catalyzed

Compound: (Cis,cis-1,3,5-cyclohexanetribenzimidazole-1-butyl-2-yl)2(Cu(I)PF6)3 [compound 6]
- Colour change in the presence of air or moisture [4]: did not change color
- EPR active species (Cu2+) after H2O2 addition ([4]; solution, EPR): no EPR active species
- IC50 [5]: 84.1 µM
- Conversion [2, 7]: 98%
- IC50 [1]: 46.7 µM
